Source: patent publication US7820640B2, “Methods for treating hearing loss” (Sound Pharmaceuticals Incorporated, priority 2002, dated 2010)
“And” between values parts separate entries of the source, which are not always exact repeats. Equal values may be shown once.

Columns and labels:
Format in all cases: in vivo, rat
[1] = system: outer hair cells in cochlea of noise-exposed Fisher-344 rats; test: Cochlear hair cell counts after noise exposure (Example 1); conditions: for physiologic protection from noise-induced hearing loss and hair cell loss: Example 1 conclusion, ebselen 16 mg/kg, N-acetyl-cysteine 325 mg/kg
Description: (§1) Noise exposure paradigm: 8-week old female Fisher-344 rats were exposed to 110-115 dB noise at 4-16 kHz for 4 hours.
Morphologic analyses: Hair cell counts in cochlea from test animals following noise exposure and physiologic evaluation using ABR were determined by carefully dissecting cochlea to obtain inner ear sensory epithelia. The tissues were stained with fluorescein-labeled phalloidin (specific for actin filaments, which are abundant in hair cells) and 4,6-diamidino-2-phenylindole (DAPI; specific for the DNA in the nucleus in cells). Samples were then mounted on microscope slides and viewed with epifluorescence to determine the extent of hair cell loss and retention. The correlation between physiologic data (ABR) and morphological data (hair cell counts) allows for confirmation of the protective effects of otoprotectants of the invention.
(§2) Dosing of Otoprotectants: Ebselen was dissolved at 4 mg/mL in 10% DMSO and administered to rats at 16 mg/kg. N-acetyl-cysteine was dissolved at 100 mg/mL in saline and was administered to rats at 325 mg/kg. About 0.5 ml of ebselen solution or N-acetyl-cysteine solution was injected intra-peritoneally or delivered by oral gavage twice daily the day prior to, the day of, and the day following exposure to noise. Control animals were dosed on an identical schedule with vehicle (10% DMSO) only.

[2] = system: Fisher-344 rats exposed to 110-115 dB noise at 4-16 kHz for 4 hours; test: ABR threshold shift after a single noise exposure (Example 1); conditions: for difference in ABR threshold shifts between control and treated rats: 4-16 kHz click stimulus, ebselen 16 mg/kg
Description: as §1
Physiologic analyses: The auditory evoked brainstem response (ABR) was used to assess hearing in each ear in each animal before and after exposure to noise using equipment from Intelligent Hearings System. ABR generated with a click stimulus (broad spectrum stimulus, 4-16 kHz) was measured in 5 dB intervals. Animals were re-evaluated evaluated at 1 day, 1 week, 2 weeks, and 3 weeks post noise exposure. ABR changes measured 1 day post noise exposure are considered to represent a temporary threshold shift (TTS); ABR changes measured 3 weeks post noise exposure are considered to represent a permanent threshold shift (PTS).
as §2
Statistical analysis: All experiments were performed with four rats per study group, and measuring each ear independently before and after noise exposure. Data was collected in blinded studies. Statistical analyses were performed by analysis of variance (ANOVA) between study groups.

[3] = system: Fisher-344 rats exposed to 110-115 dB noise at 4-16 kHz for 4 hours; test: ABR permanent threshold shift, ebselen and allopurinol alone or combined (Example 2); conditions: for difference in ABR threshold shifts between control and treated rats: 16 mg/kg individually, combination 8 mg/kg each, highly significant = p<0.01; for protection from both temporary and permanent thresholds shifts: ABR, rats exposed to noise, alone or in combination; for reductions in PTS compared with controls: three weeks after noise exposure, intra-peritoneal injection at 16 mg/kg individually
Description: Noise exposure paradigm: 8-10 week old female Fisher-344 rats were exposed to 110-115 dB noise at 4-16 kHz for 4 hours.
Physiologic analyses: ABR generated with a click stimulus (broad spectrum stimulus, 4-16 kHz), and with tone stimuli at frequencies of 4 kHz, 8 kHz, 12 kHz, and 16 kHz, was measured in 5 dB intervals, as described in EXAMPLE 1. Animals were tested before and at 3 weeks post noise exposure to assess PTS.
Dosing of compounds: Ebselen was dissolved at 4 mg/ml in 10% DMSO and allopurinol was dissolved at 4 mg/ml in water. Ebselen and allopurinol were administered to rats at an individual dose of 16 mg/kg or at a combined dose of 8 mg/kg each. About 0.5 ml of ebselen solution, allopurinol solution, or ebselen/allopurinol solution was injected intra-peritoneally or delivered by oral gavage twice daily the day prior to, the day of, and the day following exposure to noise. Control animals were dosed on an identical schedule with vehicle only.
(§3) Statistical analysis: All experiments were performed with four rats per study group, and measuring each ear independently before and after noise exposure. Data was collected in blinded studies. Statistical analyses were performed by ANOVA between study groups.

[4] = system: Fisher-344 rats exposed to 110 dB noise at 4-16 kHz for 4 hours two times three weeks apart; test: ABR threshold shift after repeated noise exposure (Example 3); conditions: 16 mg/kg; for difference in ABR threshold shifts between control and treated rats: 3 weeks after two exposures to 110 dB noise
Description: (§4) Noise exposure paradigm: 8-week old female Fisher-344 rats were exposed to 110 dB noise at 4-16 kHz for 4 hours two times three weeks apart.
Physiologic analyses: ABR generated with tone stimuli at frequencies of 4 kHz, 8 kHz, 12 kHz, and 16 kHz, was measured in 5 dB intervals, as described in EXAMPLE 1. […]
(§5) Dosing of Ebselen: Ebselen was dissolved at 4 mg/mL in 10% DMSO and administered to rats at a dose of 16 mg/kg. About 0.5 ml of ebselen solution was injected intra-peritoneally or delivered by oral gavage twice daily the day prior to, the day of, and the day following each exposure to noise. Control animals were dosed on an identical schedule with vehicle only.
as §3

[5] = system: outer hair cells in cochlea of repeatedly noise-exposed Fisher-344 rats; test: Cochlear hair cell counts after repeated noise exposure (Example 3); conditions: 16 mg/kg
Description: as §4
Morphologic analyses: Hair cell counts in cochlea from test animals following noise exposure and physiologic evaluation using ABR were determined as described in EXAMPLE 1.
as §5

[6] = 1 week post noise, N-acetyl-cysteine 325 mg/kg, highly significant = p<0.01, significant = p<0.05
[7] = 2 weeks post noise, N-acetyl-cysteine 325 mg/kg, highly significant = p<0.01, significant = p<0.05
[8] = 3 weeks post noise, N-acetyl-cysteine 325 mg/kg, significant = p<0.05
[9] = 1 day post noise (115 dB, 4-16 kHz, 4 h), N-acetyl-cysteine 325 mg/kg twice daily, highly significant = p<0.01, significant = p<0.05
[10] = 4 kHz stimulus, 3 weeks after noise
[11] = click stimulus, 3 weeks after 115 dB, 4-16 kHz noise for 4 h

SMILES | physiologic protection from noise-induced hearing loss and hair cell loss [1] | difference in ABR threshold shifts between control and treated rats [2, 6] | difference in ABR threshold shifts between control and treated rats [2, 7] | difference in ABR threshold shifts between control and treated rats [2, 8] | difference in ABR threshold shifts between control and treated rats [2, 9] | difference in ABR threshold shifts between control and treated rats [3, 10] | protection from both temporary and permanent thresholds shifts [3] | difference in ABR threshold shifts between control and treated rats [3, 11] | reductions in PTS compared with controls [3] | further results
CC(=O)N[C@@H](CS)C(=O)O [N-acetyl-cysteine, N-acetyl-L-Cysteine] | physiologic protection | significant | significant | significant | significant |  |  |  |  | reduction in TTS ([2]; click stimulus, all time points after noise exposure, 325 mg/kg): significant reduction
Oc1ncnc2[nH]ncc12 [allopurinol, 4-hydroxypyrazolo[3,4-d]pyrimidine] |  |  |  |  |  | highly significant | significant protection | highly significant | significant reductions | difference in ABR threshold shifts between control and treated rats ([3]; 16 kHz stimulus, 3 weeks after noise): highly significant; protection from noise-induced hearing loss and hair cell loss ([3]; statement in Example 1 referring to EXAMPLE 2): provide protection
O=c1c2ccccc2[se]n1-c1ccccc1 [ebselen, 2-phenyl-1,2-benzoisoselenazol-3(2H)-one] | physiologic protection | highly significant | highly significant | significant | highly significant | highly significant | significant protection | highly significant | significant reductions | preservation of outer hair cells ([1]; after noise exposure, control animal had almost complete loss of outer hair cells): preservation of most outer hair cells; difference in ABR threshold shifts between control and treated rats ([4]; 8 kHz stimulus, p<0.01): highly significant; difference in ABR threshold shifts between control and treated rats ([4]; 16 kHz stimulus, p<0.05): significant; reduction in TTS compared with controls ([4]; 1 day after repeated noise exposures): significant reduction; PTS compared to controls ([4]; three weeks after repeated noise exposures): significantly reduced; number of outer hair cells lost ([5]; individual rats B and D, two exposures to 110 dB noise, control rats A and C lost 401 and 246): 90 and 56; hair cell loss in cochlea compared to the control group ([5]; repeated noise exposure): less hair cell loss; reduction in TTS and PTS compared to control animals (fold) ([2]; click stimulus, 16 mg/kg): at least two-fold; reduction in TTS (temporary threshold shift) compared with controls ([2]; click stimulus, one day after noise exposure, 16 mg/kg): highly significant reduction; reduction in PTS (permanent threshold shift) compared with controls ([2]; click stimulus, three weeks after noise exposure, 16 mg/kg): significant reduction; PTS of a treated animal ([2]; single ebselen-treated animal, control animal 15 dB PTS): 0 dB
